Measurements taken from ChEMBL document CHEMBL2010710, “Flavimycins A and B, dimeric 1,3-dihydroisobenzofurans with peptide deformylase inhibitory activity from Aspergillus flavipes” (J Nat Prod, 2012).
pIC50: −log10 of the molar value. In brackets after ≈: the same amount, converted by molar mass.

Experiments:
Staphylococcus aureus [1] = test: Antibacterial activity against quinolone-resistant Staphylococcus aureus CCARM 3505 after 18 hrs by broth microdilution method; format: functional; settings: CCARM 3505, 18 h
[2] = target: T1, Peptide deformylase (Staphylococcus aureus) (UniProt P68826); test: (§1) Inhibition of Staphylococcus aureus peptide deformylase using N-formylmethionine-alanine-serine as substrate by spectrophotometry
T1 sequence (whole entry): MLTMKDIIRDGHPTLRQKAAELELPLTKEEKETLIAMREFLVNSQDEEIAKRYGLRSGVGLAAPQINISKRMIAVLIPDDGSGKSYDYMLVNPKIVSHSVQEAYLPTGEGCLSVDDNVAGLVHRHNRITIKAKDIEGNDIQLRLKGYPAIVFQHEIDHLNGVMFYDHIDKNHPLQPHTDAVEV

Peptide deformylase = target: T2, Peptide deformylase (Staphylococcus aureus, UniProt P68826); test: as §1
T2 sequence (P68826 whole entry): T1 sequence (whole entry)

Staphylococcus aureus [3] = test: Antibacterial activity against methicillin-resistant Staphylococcus aureus CCARM 3167 after 18 hrs by broth microdilution method; format: functional; settings: CCARM 3167, 18 h
Staphylococcus aureus [4] = test: Antibacterial activity against Staphylococcus aureus RN4220 after 18 hrs by broth microdilution method; format: functional; settings: RN4220, 18 h

| Structure (SMILES) | MIC (Staphylococcus aureus [1]) [µg/mL] | inhibition [2] | pIC50 (Peptide deformylase) | MIC (Staphylococcus aureus [3]) [µg/mL] | MIC (Staphylococcus aureus [4]) [µg/mL] |
| --- | --- | --- | --- | --- | --- |
| COCc1c(O)c(O)c(O)c2c1CO[C@H]2[C@H]1OC(O)c2c(C)c(O)c(O)c(O)c21 (mixture of isomers) [FLAVIMYCIN B] | 64 | Dose-dependent effect | 4.00 | 64 | 64 |
| Cc1c(O)c(O)c(O)c2c1CO[C@H]2[C@H]1OC(O)c2c(C)c(O)c(O)c(O)c21 (mixture of isomers) [FLAVIMYCIN A] | 32 | Dose-dependent effect | 4.45 | 32 | 32 |
| CCCCC[C@H](CC(=O)NO)C(=O)N[C@H](C(=O)N1CCC[C@H]1CO)C(C)C [ACTINONIN] | 4 (≈ 10.4 µM) | – | 7.70 | 4 (≈ 10.4 µM) | 4 (≈ 10.4 µM) |
